Test results reported in patent publication US7550511B2, “Compositions that bind antiterminator RNA and assay for screening for such compositions” (Ahio University, priority 2001, dated 2009).

Test system: 9-(2-aminopurine)-RNA II versus 9-(2-aminopurine)-RNA IV (T-box antiterminator model RNAs)
Assay: Fluorescence assay, relative fluorescence ratio (RNA binding selectivity) at 1 mM ligand
Conditions: (F-Fo) RNA II / (F-Fo) RNA IV; <1.0 preferential binding for RNA IV, >1.0 for RNA II

For NC(Cc1ccccc1)C(O)CO (stereo not shown) [Amino Alcohol 2, 3-amino-4-phenyl-butane-1,2-diol], the “relative fluorescence ratio (rounded)” value was 0.4.
